Here are results for 18 compounds from ChEMBL document CHEMBL1123294, “Dog coronary artery adenosine receptor: structure of the N6-aryl subregion” (J Med Chem, 1986).

A short description of data set [1]: Index of hydrophobicity (k'). In kind it is ADME.
Data set [2] deals with T1, Adenosine A2 receptor (UniProt P29275+P29274). In words: Association constant against A2 adenosine receptor. It is filed as protein assay. Conditions: Canis lupus familiaris.
Data set [3] has as its target T1, Adenosine A2 receptor. Kind of data set: Acidic dissociation constant(pKa) against A2 adenosine receptor of coronary artery. It is filed as protein assay. The conditions noted are these: Canis lupus familiaris.
Data set [4] deals with T1, Adenosine A2 receptor. Conditions: Canis lupus familiaris.
Description: Molar potency ratio (MPR) against adenosine A2 receptor of canine coronary artery
The target in data set [5] is T1, Adenosine A2 receptor. Kind of data set: Maximum increase in coronary flow, percent of control, and nucleoside concentration in coronary plasma at 28 uM. Conditions: Canis lupus familiaris. It is filed as functional.
Data set [6] has as its target T1, Adenosine A2 receptor. In words: Molar potency ratio (MPR) against A2 adenosine receptor of coronary artery. It is filed as functional. Conditions: Canis lupus familiaris.
Data set [7] addresses T1, Adenosine A2 receptor. In words: Maximum increase in coronary flow, percent of control, and nucleoside concentration in coronary plasma at 17 uM. It is filed as functional. The conditions noted are these: Canis lupus familiaris.
Data set [8] concerns the target T1, Adenosine A2 receptor. Conditions: Canis lupus familiaris. This is another data set of the same source.
Data set [9] is described as follows: Estimated ionization constant(pKa). In kind it is physicochemical.
For data set [10], the target named is T1, Adenosine A2 receptor. In words: Maximum increase in coronary flow, percent of control, and nucleoside concentration in coronary plasma at 12 uM. The conditions noted are these: Canis lupus familiaris. It is filed as functional.

Structures are written as SMILES. A value given as a limit tells only on which side of the number the result lay.

T1 sequence (P29274 whole entry, looked up): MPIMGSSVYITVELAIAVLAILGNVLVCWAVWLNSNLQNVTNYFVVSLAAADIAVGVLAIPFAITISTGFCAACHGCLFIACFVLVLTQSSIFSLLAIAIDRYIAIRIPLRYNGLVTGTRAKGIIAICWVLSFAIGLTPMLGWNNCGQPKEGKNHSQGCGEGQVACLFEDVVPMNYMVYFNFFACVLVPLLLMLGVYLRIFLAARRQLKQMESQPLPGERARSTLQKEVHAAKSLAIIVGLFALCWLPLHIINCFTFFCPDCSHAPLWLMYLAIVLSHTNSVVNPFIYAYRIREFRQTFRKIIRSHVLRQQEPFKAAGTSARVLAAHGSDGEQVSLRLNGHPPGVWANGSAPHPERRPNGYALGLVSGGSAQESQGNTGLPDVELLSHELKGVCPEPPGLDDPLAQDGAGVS
T1 sequence (P29275 whole entry, looked up): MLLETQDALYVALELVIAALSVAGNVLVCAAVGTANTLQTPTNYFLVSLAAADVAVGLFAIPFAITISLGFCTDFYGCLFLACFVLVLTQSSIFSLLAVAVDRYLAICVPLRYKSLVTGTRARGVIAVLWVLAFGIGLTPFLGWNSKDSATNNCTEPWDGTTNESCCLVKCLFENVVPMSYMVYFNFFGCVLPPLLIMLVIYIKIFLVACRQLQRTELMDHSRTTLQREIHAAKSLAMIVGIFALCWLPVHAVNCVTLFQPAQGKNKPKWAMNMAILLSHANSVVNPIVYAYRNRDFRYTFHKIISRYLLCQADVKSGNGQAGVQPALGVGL

Consider `OC[C@H]1O[C@@H](n2cnc3c(Nc4ccccc4)ncnc32)[C@H](O)[C@@H]1O` [N6-PHENYLADENOSINE], for which the “k'” value in data set [1] is 1.29. The K in data set [2] turned out to be 3160 M⁻¹. Further, the pka in [3] is 2.73. The MPR in data set [4] is 1.4.
For `COc1cc(Nc2ncnc3c2ncn3C2O[C@H](CO)[C@@H](O)[C@H]2O)cc(OC)c1OC` (some centres undefined), the “k'” value in data set [1] was 1.54. In data set [5], this compound showed an Activity of 28%. In data set [3], this compound yielded a pka of 2.8.
For the compound `COc1ccccc1CNc1ncnc2c1ncn2[C@@H]1O[C@H](CO)[C@@H](O)[C@H]1O`, in data set [1], the “k'” value is listed as 2.31. The MPR in data set [6] worked out at 0.7. The same compound came in with a pka in data set [3] of 3.3.
With `Cc1cccc(C)c1Nc1ncnc2c1ncn2C1O[C@H](CO)[C@@H](O)[C@H]1O` (some centres undefined), the “k'” value in [1] is recorded as 1.52. The same compound gave an Activity in data set [7] of 22%.
Take `C[C@H](Cc1ccccc1)Nc1ncnc2c1ncn2[C@@H]1O[C@H](CO)[C@@H](O)[C@H]1O` (stereo in doubt; 1): the MPR in [8] is 4.3.
Take `OC[C@H]1OC(n2cnc3c(Nc4ccc(F)cc4)ncnc32)[C@H](O)[C@@H]1O` (some centres undefined): the “k'” value in data set [1] is reported as 1.68. The compound also displayed a K in [2] of 3560 M⁻¹. Further, the pka in data set [3] is 2.65. Also, in data set [4], the MPR is 1.5.
In general, pKa refers to the pH at which an ionisable group is half protonated. Regarding `COc1ccccc1CCNc1ncnc2c1ncn2C1O[C@H](CO)[C@@H](O)[C@H]1O` (some centres undefined), the “k'” value in data set [1] worked out at 2.57. The pKa in data set [9] is 3.56. Further, the MPR in data set [4] is 1.2.
On to `OC[C@H]1OC(n2cnc3c(NC4CCc5ccccc5C4)ncnc32)[C@H](O)[C@@H]1O` (some centres undefined), for which the “k'” value in data set [1] came to 4.89. The compound also came in with an MPR in data set [8] of 0.14.
Regarding `OC[C@H]1OC(n2cnc3c(NCCc4ccc(F)cc4)ncnc32)[C@H](O)[C@@H]1O` (some centres undefined), the “k'” value in data set [1] amounted to 2.39. In addition, in [2], the K stood at 10300 M⁻¹. In addition, in data set [3], the pka was found to be 3.32. Also, the MPR in data set [4] worked out at 2.1.
In the case of `COc1ccc(CNc2ncnc3c2ncn3[C@@H]2O[C@H](CO)[C@@H](O)[C@H]2O)cc1`, the “k'” value in [1] worked out at 1.66. The compound also showed an MPR in data set [8] of 0.04. Besides, the pka in data set [3] came out at 3.06.
With `OC[C@H]1OC(n2cnc3c(Nc4cccc(F)c4)ncnc32)[C@H](O)[C@@H]1O` (some centres undefined), in data set [1], the “k'” value is reported as 2.36. For the same compound, in data set [2], the K was found to be 6360 M⁻¹. The compound further came in with a pka in data set [3] of 2.66. In addition, in [4], the MPR was 0.43.
Regarding `Cc1cc(C)cc(Nc2ncnc3c2ncn3C2O[C@H](CO)[C@@H](O)[C@H]2O)c1` (some centres undefined), the “k'” value in data set [1] is on record as 6.43. Moreover, the Activity in data set [10] worked out at 4%.
Consider `Cc1ccc(CNc2ncnc3c2ncn3[C@@H]2O[C@H](CO)[C@@H](O)[C@H]2O)cc1`, for which the “k'” value in [1] is reported as 3.04. In [3], this compound displayed a pka of 3.19. In [4], this compound came in with an MPR of 0.04.
On the same counts, the results for `Cc1ccccc1CNc1ncnc2c1ncn2[C@@H]1O[C@H](CO)[C@@H](O)[C@H]1O` are 2.76, 3.22 and 1.8.
On the same counts, the results for `COc1ccc(CCNc2ncnc3c2ncn3C2O[C@H](CO)[C@@H](O)[C@H]2O)cc1` (some centres undefined) are 1.93, 3.49 and 0.29.
On to `OC[C@H]1OC(n2cnc3c(NCCc4ccccc4Cl)ncnc32)[C@H](O)[C@@H]1O` (some centres undefined), for which, in [1], the “k'” value amounted to 3.64. The same compound returned a K in data set [2] of 32400 M⁻¹. The compound further had a pka in data set [3] of 3.27. For the same compound, the MPR in data set [4] was 0.67.
As to `OC[C@H]1OC(n2cnc3c(NCCc4ccccn4)ncnc32)[C@H](O)[C@@H]1O` (some centres undefined), the “k'” value in data set [1] is listed as 0.39. Also, in [3], the pka was < 1. For the same compound, the MPR in [4] was 1.
On the same counts, the results for `OC[C@H]1O[C@@H](n2cnc3c(NCc4ccc(Cl)cc4)ncnc32)[C@H](O)[C@@H]1O` are 3.44, 3.61 and 0.005.
